pEC50, pKd: −log10 of the molar value. Marks after values point to notes of the source that are not given here.
What was measured:
[1] = system: L. coryniformis; assay: Cell-binding assay by flow cytometry; set-up: species or system Lactobacillus coryniformis; conditions: maximum mean fluorescence intensity, Hill fit
Procedure: (§1) The binding affinity and avidity of pediocin to various gram-positive and gram-negative bacteria were studied using flow cytometry. Late log-phase cells were washed in the sodium phosphate buffer (5 mM, pH 6.0) and resuspended at an OD600 of 10^–3 in sodium-acetate buffer (25 mM, pH 4.0), sodium phosphate buffer (5 mM, pH 6.0), or sodium phosphate buffer (5 mM, pH 7.4) containing 1% bovine serum albumin (BSA) and 100 mM NaCl. Cells were incubated with varying concentrations of the conjugated peptide at 4°C for 30 min. The unbound peptide was removed by centrifugation, and the pellet was resuspended in its respective binding buffer containing 1% BSA. Flow cytometry was performed on an Attune NxT flow cytometer (Life Technologies/ThermoFisher Scientific, Carlsbad, CA). Data (≥10^4 events were recorded) were recorded using a […] (488 nm) at a voltage of 360 V, and gating was performed on an SSC-A versus SSC-H plot to reduce false events.

[2] = system: L. cremoris; assay: Cell-binding assay by flow cytometry; set-up: species or system Lactococcus cremoris; conditions: organism printed as L. lactis; signal did not saturate; read-out: Apparent KD
Procedure: as §1

[3] = format: physicochemical
Text: (§2) We then proceeded to clone the pediocin operon (pedABCD [43]) from P. acidilactici UL5 into the pSIP-P27 vector for heterologous expression in other lactic acid bacteria, viz., Lactiplantibacillus plantarum WCFS1, Lactococcus cremoris MG1363, and the well-established expression host, E. coli MG1655. The pediocin operon imparted anti-listerial activity to the L. plantarum culture supernatant but not to that of L. cremoris or E. coli (Fig. 1A). Based on the degree of bioactivity, we concluded that the level of recombinant biosynthetic pediocin PA-1 accumulated in L. plantarum culture was similar to that observed for P. acidilactici UL5 and was therefore not pursued further. Thus, for subsequent studies, we isolated pediocin PA-1 from P. acidilactici UL5 directly using the cell adsorption-desorption approach (Fig. S2). […] We attempted to further purify the preparation using reverse-phase high performance liquid chromatography with minimal enhancement in purity but a significant loss in yield (Fig. S3). The peptide recovered after cell adsorption-desorption and dialysis was lyophilized for long-term storage to minimize any loss in activity. The peptide using this method was purified 189-fold with a specific activity of 9,434 AU·mg^−1 as measured by agar-well diffusion method (Fig. 1B; Fig. S2A through C).

[4] = system: L. seeligeri; format: cell-based, Listeria seeligeri; conditions: 24 h
Procedure: (§3) To determine the potency of the purified pediocin PA-1, we generated kill curves against a range of target bacteria (Fig. 1C). The concentration range tested was 3 pM to 3 μM following 10-fold serial dilutions. […] This is in approximate agreement with the published potency of pediocin PA-1 ([46]). Though the molecular mass of pediocin PA-1 is expected to be 4.5 kDa, we observed the partially purified peptide to migrate with an apparent mass of ~12.5 kDa (Fig. 1B). However, subsequent analysis by LC-MS yielded peaks of multiple m/z with the predominant peak at the expected molecular size of 4.6 kDa (Fig. S4). The purified pediocin PA-1, separated on denaturing but non-reducing SDS-PAGE (since this bacteriocin contains two crucial disulfide bonds), was subjected to agar-overlay assay using L. seeligeri as the indicator organism (Fig. S5).
(§4) The antimicrobial spectrum of pediocin PA-1 was assayed using a kill curve. Cultures grown overnight were resuspended in fresh medium at an OD600 of 0.05. EC50 was determined by incubating cells with varying concentrations of pediocin in a 96-well plate, and growth was measured at 600 nm after 24 h.
Figure S7. Growth inhibition of L. seeligeri by modified and unmodified pediocin PA-1.

[5] = Specific activity of partially purified pediocin by agar-well diffusion method; format: cell-based; conditions: after cell adsorption-desorption and dialysis
Text: as §2, with “C). […]” for “C).”

[6] = system: L. casei; assay: Cell-binding assay by flow cytometry; set-up: species or system Lacticaseibacillus casei; conditions: signal did not saturate
Procedure: as §1

[7] = system: Bacillus subtilis; assay: Cell-binding assay by flow cytometry; conditions: maximum mean fluorescence intensity, Hill fit
Procedure: as §1

[8] = system: L. coryniformis; format: cell-based, Lactobacillus coryniformis; conditions: 24 h
Procedure: as §3, §4

[9] = system: E. coli; assay: Cell-binding assay by flow cytometry; set-up: species or system Escherichia coli; conditions: negative control species; signal did not saturate; read-out: Apparent KD
Procedure: as §1

CC[C@H](C)[C@@H]1NC(=O)[C@@H](NC(=O)[C@@H](NC(=O)[C@@H](NC(=O)[C@H](C)NC(=O)[C@H](CCCCN)NC(=O)CNC(=O)[C@H](Cc2c[nH]c3ccccc23)NC(=O)[C@H](CC(=O)O)NC(=O)[C@@H](NC(=O)[C@H](CO)NC(=O)[C@@H]2CSSC[C@H](NC(=O)[C@@H](NC(=O)[C@@H](NC(=O)CNC(=O)[C@H](CC(N)=O)NC(=O)CNC(=O)[C@H](Cc3ccc(O)cc3)NC(=O)[C@H](Cc3ccc(O)cc3)NC(=O)[C@@H](N)CCCCN)C(C)C)[C@@H](C)O)C(=O)NCC(=O)N[C@@H](CCCCN)C(=O)N[C@@H](Cc3c[nH]cn3)C(=O)N[C@@H](CO)C(=O)N2)C(C)C)[C@@H](C)O)[C@@H](C)O)CSSC[C@@H](C(=O)O)NC(=O)[C@H](CCCCN)NC(=O)[C@H](Cc2c[nH]cn2)NC(=O)[C@H](CC(N)=O)NC(=O)CNC(=O)[C@H](CCC(N)=O)NC(=O)[C@H](Cc2c[nH]cn2)NC(=O)CNC(=O)CNC(=O)[C@H]([C@@H](C)O)NC(=O)[C@H](C)NC(=O)[C@H](Cc2c[nH]c3ccccc23)NC(=O)[C@H](C)NC(=O)[C@H](CCSC)NC(=O)[C@H](C)NC(=O)CNC(=O)[C@H](CC(N)=O)NC(=O)[C@H](CC(N)=O)NC(=O)[C@H]([C@@H](C)CC)NC1=O [pediocin PA-1]
MFImax [1]: 6.3 ± 0.3 ×10^3
pKd [2]: < 5.70
stability of peptide recovered at acidic pH compared with basic pH [3]: more stable
pEC50 [4]: ~7.88
specific activity [5]: 9,434 AU·mg^−1
MFImax [6]: >2* ×10^3
pKd ([6]; read-out: Apparent KD): < 5.70
MFImax [7]: 7 ± 1 ×10^3
pEC50 [8]: ~9.00
pKd [9]: < 5.70

From article PMC13055374, “Engineered antimicrobial-derived peptides to manipulate mixed microbial systems” (Microbiology Spectrum, 2026)
